Measurements reported in ChEMBL document CHEMBL1155123, “Synthesis and discovery of autophagy inducers for A549 and H460 lung cancer cells, novel 1-(2'-hydroxy-3'-aroxypropyl)-3-aryl-1H-pyrazole-5-carbohydrazide derivatives” (Bioorg Med Chem Lett, 2008).
Calls of active or inactive are those of the source. The calls are words filed in the database; no cut-off is given here.

Assays:
A549 [1] = test: Induction of apoptosis in human A549 cells assessed as nuclear and acidic compartment morphology at 80 uM; format: functional, cell-based
A549 [2] = test: Growth inhibition of human A549 cells after 48 hrs by MTT assay; format: functional, cell-based; conditions: A549, 48 h
NCI-H460 [3] = test: Induction of necrosis in human H460 cells assessed as LDH release at 80 uM after 48 hrs; format: functional, cell-based
A549 [4] = test: Induction of necrosis in human A549 cells assessed as LDH release at 80 uM after 48 hrs; format: functional, cell-based
A549 [5] = test: Induction of necrosis in human A549 cells assessed as LDH release at 80 uM after 24 hrs; format: functional, cell-based
A549 [6] = test: Induction of autophagy in human A549 cells assessed as nuclear and acidic compartment morphology at 10 to 80 uM after 24 hrs; format: functional, cell-based
NCI-H460 [7] = test: Induction of necrosis in human H460 cells assessed as LDH release at 80 uM after 24 hrs; format: functional, cell-based
NCI-H460 [8] = test: Induction of apoptosis in human H460 cells assessed as nuclear and acidic compartment morphology at 80 uM; format: functional, cell-based
A549 [9] = test: Growth inhibition of human A549 cells after 96 hrs by MTT assay; format: functional, cell-based; conditions: A549, 96 h
NCI-H460 [10] = test: Induction of autophagy in human H460 cells assessed as nuclear and acidic compartment morphology at 80 uM after 24 hrs; format: functional, cell-based
NCI-H460 [11] = test: Induction of autophagy in human H460 cells assessed as nuclear and acidic compartment morphology at 80 uM after 48 hrs; format: functional, cell-based
A549 [12] = test: Induction of autophagy in human A549 cells assessed as nuclear and acidic compartment morphology at 80 uM after 48 hrs; format: functional, cell-based
A549 [13] = test: Antiproliferative activity against human A549 cells assessed as cell viability at 80 uM after 96 hrs by MTT assay; format: functional; conditions: A549, 96 h, read-out: Activity
HUVEC [14] = test: Antiproliferative activity against HUVEC assessed as cell viability after 48 hrs by MTT assay; format: cell-based; conditions: human
A549 [15] = test: Effect on morphological changes in human A549 cells at 10 to 80 uM after 24 hrs; format: functional, cell-based
A549 [16] = test: Antiproliferative activity against human A549 cells assessed as cell viability at 40 uM after 48 hrs by MTT assay relative to control; format: functional; conditions: A549, 48 h, read-out: Activity
A549 [17] = test: Effect on morphological changes in human A549 cells at 10 to 80 uM after 48 hrs; format: functional, cell-based
A549 [18] = test: Antiproliferative activity against human A549 cells assessed as cell viability at 80 uM after 48 hrs by MTT assay; format: functional; conditions: A549, 48 h, read-out: Activity
A549 [19] = test: Antiproliferative activity against human A549 cells assessed as cell viability at 40 uM after 24 hrs by MTT assay; format: functional; conditions: A549, 24 h, read-out: Activity
HUVEC [20] = test: Antiproliferative activity against HUVEC assessed as cell viability after 24 hrs by MTT assay; format: cell-based; conditions: human
HUVEC [21] = test: Induction of HUVEC growth at 10 uM after 24 hrs by MTT assay; format: functional, cell-based; conditions: Homo sapiens

IC50 (A549 [2]) [µM] | IC50 (A549 [9]) [µM] | SMILES | Activity (A549 [1]) | Activity (NCI-H460 [3]) | Activity (A549 [4]) | Activity (A549 [5]) | Activity (A549 [6]) | Activity (NCI-H460 [7]) | Activity (NCI-H460 [8]) | Activity (NCI-H460 [10]) | Activity (NCI-H460 [11]) | Activity (A549 [12]) | viability at 80 µM (A549 [13]) [%] | viability at 40 µM (A549 [16]) [%] | viability at 80 µM (A549 [18]) [%] | viability at 40 µM (A549 [19]) [%] | further results
74 | 40 | COc1ccccc1OCC(O)Cn1nc(-c2ccc(Cl)cc2)cc1C(=O)NN (centres undefined) | inactive | inactive | inactive | inactive | Active | inactive | inactive | Active | Active | Active | – | – | – | – | –
48 | 30 | NNC(=O)c1cc(-c2ccccc2)nn1CC(O)COc1ccc(Cl)cc1 (centres undefined) | inactive | inactive | inactive | inactive | Active | inactive | inactive | Active | Active | Active | 6 | 56 | 29 | 72 | Activity (HUVEC [14]): Not Active; Activity (A549 [15]): Active; Activity (A549 [17]): Active; Activity (HUVEC [20]): Not Active
72 | 45 | NNC(=O)c1cc(-c2ccccc2)nn1CC(O)COc1ccc([N+](=O)[O-])cc1 (centres undefined) | inactive | inactive | inactive | inactive | Active | inactive | inactive | Active | Active | Active | – | – | – | – | –
72 | 49 | COc1ccccc1OCC(O)Cn1nc(-c2ccccc2)cc1C(=O)NN (centres undefined) | inactive | inactive | inactive | inactive | Active | inactive | inactive | Active | Active | Active | – | – | – | – | –
70 | 51 | COc1ccc(-c2cc(C(=O)NN)n(CC(O)COc3ccccc3OC)n2)cc1 (centres undefined) | inactive | inactive | inactive | inactive | Active | inactive | inactive | Active | Active | Active | – | – | – | – | –
39 | 37 | NNC(=O)c1cc(-c2ccc(Cl)cc2)nn1CC(O)COc1ccc([N+](=O)[O-])cc1 (centres undefined) | inactive | inactive | inactive | inactive | Active | inactive | inactive | Active | Active | Active | 6 | 56 | 29 | 72 | –
32 | 27 | NNC(=O)c1cc(-c2ccc(Cl)cc2)nn1CC(O)COc1ccc(Cl)cc1 (centres undefined) | inactive | inactive | inactive | inactive | Active | inactive | inactive | Active | Active | Active | 6 | 56 | 29 | 72 | Activity (HUVEC [14]): Not Active; Activity (HUVEC [21]): Active; Activity (A549 [15]): Active; Activity (A549 [17]): Active; Activity (HUVEC [20]): Not Active
39 | 35 | COc1ccc(-c2cc(C(=O)NN)n(CC(O)COc3ccc(Cl)cc3)n2)cc1 (centres undefined) | inactive | inactive | inactive | inactive | Active | inactive | inactive | Active | Active | Active | – | 40 | – | 62 | –
